From ChEMBL document CHEMBL3044666, “Synthesis, biological evaluation and molecular modeling studies of Schiff bases derived from 4-methylsalicylic acid as potential immunosuppressive agents” (Med Chem Res, 2013) come the findings set out here.

A short description of data set [1]: Selectivity index, ratio of CC50 for BALB/C Mus musculus (mouse) lymph node cells to IC50 for conA-induced BALB/C lymph node cells. It counts as functional.
A short description of data set [2]: Immunosuppressive activity in BALB/C Mus musculus (mouse) lymph node cells assessed as inhibition of conA-induced proliferation incubated at 24 hr post conA-challenge measured after 72 hr by MTT assay. The format is functional.
Data set [3] can be described thus: Cytotoxicity against BALB/C Mus musculus (mouse) lymph node cells after 24 hr by MTT assay. It counts as cell-based.
For data set [4], the target named is Phosphatidylinositol 4,5-bisphosphate 3-kinase catalytic subunit gamma isoform (Homo sapiens, UniProt P48736). The data set can be described thus: Inhibition of PI3Kgamma (unknown origin) using [33gammaP]ATP and phosphotidylinositol as substrate by scintillation proximity assay. In general terms: SPA uses beads or plates that emit light when radiolabelled molecules are held near them.
Chain of Phosphatidylinositol 4,5-bisphosphate 3-kinase catalytic subunit gamma isoform (P48736 whole entry, canonical isoform): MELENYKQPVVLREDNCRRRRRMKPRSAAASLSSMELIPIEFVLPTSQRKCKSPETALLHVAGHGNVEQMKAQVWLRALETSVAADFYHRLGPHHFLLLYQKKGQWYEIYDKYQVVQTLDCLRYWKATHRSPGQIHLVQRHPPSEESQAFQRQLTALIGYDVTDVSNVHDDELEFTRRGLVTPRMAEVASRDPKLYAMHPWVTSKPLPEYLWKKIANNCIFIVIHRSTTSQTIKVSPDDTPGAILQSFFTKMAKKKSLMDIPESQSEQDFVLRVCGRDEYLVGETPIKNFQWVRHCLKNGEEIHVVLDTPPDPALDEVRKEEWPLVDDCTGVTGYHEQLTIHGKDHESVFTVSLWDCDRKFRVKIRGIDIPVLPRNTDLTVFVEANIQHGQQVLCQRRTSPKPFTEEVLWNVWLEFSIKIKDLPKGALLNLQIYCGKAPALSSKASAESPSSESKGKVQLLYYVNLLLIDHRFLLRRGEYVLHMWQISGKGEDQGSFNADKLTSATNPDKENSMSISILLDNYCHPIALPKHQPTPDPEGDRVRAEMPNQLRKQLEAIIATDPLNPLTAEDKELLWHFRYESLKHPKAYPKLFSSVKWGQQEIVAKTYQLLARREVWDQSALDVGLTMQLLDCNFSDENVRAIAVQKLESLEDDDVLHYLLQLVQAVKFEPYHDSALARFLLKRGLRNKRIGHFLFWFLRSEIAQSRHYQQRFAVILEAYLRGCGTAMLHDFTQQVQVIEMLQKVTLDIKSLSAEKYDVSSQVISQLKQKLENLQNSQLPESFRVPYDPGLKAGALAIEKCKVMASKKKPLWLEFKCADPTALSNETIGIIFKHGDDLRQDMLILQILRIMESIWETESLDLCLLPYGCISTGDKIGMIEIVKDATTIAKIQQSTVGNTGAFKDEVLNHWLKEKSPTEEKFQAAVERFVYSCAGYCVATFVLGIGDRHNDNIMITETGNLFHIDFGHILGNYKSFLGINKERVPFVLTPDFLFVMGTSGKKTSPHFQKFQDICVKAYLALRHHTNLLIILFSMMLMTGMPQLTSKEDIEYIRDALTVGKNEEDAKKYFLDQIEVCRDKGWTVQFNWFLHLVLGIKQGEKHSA

For data set [5], the species on record is Mus musculus. The data set can be described thus: Induction of apoptosis in ConA-induced BALB/C Mus musculus (mouse) lymph node cells after 24 hr by AnnexinV-FITC based flow cytometric analysis. The format is functional. For orientation: In flow cytometry, cells or beads pass a laser one at a time.
Data set [6] in a line: Ratio of CsA CC50 to compound CC50 for BALB/C Mus musculus (mouse) lymph node cells. It counts as ADME.
The species entered for data set [7] is Mus musculus. The data set can be described thus: Induction of apoptosis in ConA-induced BALB/C Mus musculus (mouse) lymph node cells assessed as caspase3 activation after 24 hr by Western blot analysis. The format is functional. (In western blotting, separated proteins are transferred to a membrane and probed.)
Data set [8] has as its target Phosphatidylinositol 4,5-bisphosphate 3-kinase catalytic subunit gamma isoform (Mus musculus) (UniProt Q9JHG7). Briefly: Inhibition of PI3Kgamma-mediated AKT Ser473 phosphorylation in ConA-induced BALB/C Mus musculus (mouse) lymph node cells after 24 hr by Western blot analysis.

Some results are limits rather than exact numbers.

Chain of Phosphatidylinositol 4,5-bisphosphate 3-kinase catalytic subunit gamma isoform (Mus musculus) (Q9JHG7 whole entry, looked up, canonical isoform): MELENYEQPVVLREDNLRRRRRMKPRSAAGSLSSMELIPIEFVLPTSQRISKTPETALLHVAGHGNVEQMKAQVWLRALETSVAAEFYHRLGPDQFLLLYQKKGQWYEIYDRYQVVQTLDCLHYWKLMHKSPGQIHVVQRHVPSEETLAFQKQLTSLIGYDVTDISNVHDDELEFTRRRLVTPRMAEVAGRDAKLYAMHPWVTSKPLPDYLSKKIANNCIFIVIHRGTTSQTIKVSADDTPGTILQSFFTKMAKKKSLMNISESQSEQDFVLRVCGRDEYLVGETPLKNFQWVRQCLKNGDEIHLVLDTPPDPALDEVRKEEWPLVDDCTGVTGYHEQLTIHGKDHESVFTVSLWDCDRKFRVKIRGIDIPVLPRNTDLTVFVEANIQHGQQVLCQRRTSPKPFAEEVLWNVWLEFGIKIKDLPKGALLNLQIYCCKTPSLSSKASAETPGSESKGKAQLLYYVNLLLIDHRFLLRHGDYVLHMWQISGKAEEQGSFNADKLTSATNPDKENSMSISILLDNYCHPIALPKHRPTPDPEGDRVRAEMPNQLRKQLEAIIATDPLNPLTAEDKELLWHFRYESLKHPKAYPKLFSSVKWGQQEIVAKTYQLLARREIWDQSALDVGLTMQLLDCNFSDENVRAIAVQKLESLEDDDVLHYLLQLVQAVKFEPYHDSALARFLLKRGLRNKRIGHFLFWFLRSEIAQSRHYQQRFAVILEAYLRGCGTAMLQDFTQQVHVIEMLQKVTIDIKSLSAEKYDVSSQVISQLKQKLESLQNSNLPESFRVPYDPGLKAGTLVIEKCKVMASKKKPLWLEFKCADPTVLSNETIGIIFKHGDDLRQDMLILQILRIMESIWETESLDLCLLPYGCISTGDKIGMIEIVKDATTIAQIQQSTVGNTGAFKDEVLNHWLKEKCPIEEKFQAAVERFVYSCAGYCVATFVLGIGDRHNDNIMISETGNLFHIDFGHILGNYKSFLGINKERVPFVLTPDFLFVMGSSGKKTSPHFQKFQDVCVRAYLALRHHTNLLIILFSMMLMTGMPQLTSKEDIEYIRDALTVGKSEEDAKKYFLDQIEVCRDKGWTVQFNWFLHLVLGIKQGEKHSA

What is called IC50 is the point on the concentration scale where inhibition reaches its midpoint. One may read the CC50 as the concentration at which the toxic effect on the cells reaches its halfway point. Regarding `Cc1ccc(C(=O)N/N=C/c2ccccc2[N+](=O)[O-])c(O)c1`, the “Ratio CC50/IC50” value in data set [1] is under 6.44. Moreover, in data set [2], the IC50 was over 100 µM. The compound also came in with a half-maximal cytotoxic concentration (CC50) at 24 h in data set [3] of 644 µM.
In the case of `Cc1ccc(C(=O)N/N=C/c2ccccc2)c(O)c1`, the “Ratio CC50/IC50” value in data set [1] came to 10.74. Further, the IC50 in data set [2] came to 53.9 µM. This compound also showed a 50% cytotoxic concentration (CC50) at 24 h in data set [3] of 578 µM.
For `Cc1ccc(C(=O)N/N=C/c2ccccc2F)c(O)c1`, in that order: 8.61, 42.1 µM and 362 µM.
The corresponding values for `Cc1ccc(C(=O)N/N=C/c2ccccc2Cl)c(O)c1` are 6.51, 19.2 µM and 125 µM.
With `Cc1ccc(C(=O)N/N=C/c2ccc(Cl)cc2Cl)c(O)c1`, the “Ratio CC50/IC50” value in data set [1] was 29.79. In addition, the half-inhibitory concentration (IC50) in data set [2] is 9.78 µM. The midpoint of cytotoxicity in data set [3], the CC50 at 24 h, lay at 291 µM.
With `Cc1ccc(C(=O)N/N=C/c2ccc(F)cc2)c(O)c1`, the “Ratio CC50/IC50” value in data set [1] turned out to be 21.26. Also, the IC50 in data set [2] amounted to 26.7 µM. For the same compound, in data set [3], the half-maximal cytotoxic concentration (CC50) at 24 h came out at 568 µM.
Consider `Cc1ccc(C(=O)N/N=C/c2ccc([N+](=O)[O-])cc2)c(O)c1`, for which the “Ratio CC50/IC50” value in data set [1] came to 30.23. Also, the IC50 in data set [2] was 24.3 µM. The compound further registered a CC50 at 24 h in data set [3] of 734 µM.
Regarding `COc1ccc(/C=N/NC(=O)c2ccc(C)cc2O)cc1`, the “Ratio CC50/IC50” value in data set [1] is given as under 7.23. In addition, the IC50 in data set [2] was over 100 µM. In addition, it took 723 µM to reach half-maximal cytotoxicity in data set [3] (CC50 at 24 h).
For `Cc1ccc(C(=O)N/N=C/c2ccc(Cl)cc2)c(O)c1`, in that order: 9.45, 12.3 µM and 116 µM.
For `Cc1ccc(C(=O)N/N=C/c2cccc(Cl)c2)c(O)c1`, in that order: 30.89, 24.4 µM and 636 µM.
For `Cc1ccc(C(=O)N/N=C/c2cc(Cl)ccc2O)c(O)c1`, in data set [1], the “Ratio CC50/IC50” value amounted to 433.84. In addition, the results for the IC50 in data set [2] and in data set [4] were 1.29 µM and 3.69 µM, respectively. For the same compound, the CC50 at 24 h in data set [3] came out at 560 µM.
In the case of `Cc1ccc(C(=O)N/N=C/c2cc(Cl)cc(Cl)c2O)c(O)c1`, the “Ratio CC50/IC50” value in data set [1] turned out to be 468.72. In the data set filed under Mus musculus [5], the Activity entry is “Dose-dependent effect”. Also, the IC50 in data set [2] was 1.51 µM; in data set [4] it was 4.81 µM. The same compound gave a CC50 at 24 h in data set [3] of 708 µM.
On to `Cc1ccc(C(=O)N/N=C/c2cc(Br)ccc2O)c(O)c1`, for which, in data set [1], the “Ratio CC50/IC50” value is listed as 1371.95. Besides, the values for the half-maximal inhibitory concentration (IC50) in data set [2] and in data set [4] were 1.09 µM and 2.6 µM, respectively. Moreover, it took 1500 µM to reach half-maximal cytotoxicity in data set [3] (CC50 at 24 h).
`Cc1ccc(C(=O)N/N=C/c2cccc(F)c2)c(O)c1`: in data set [1], the “Ratio CC50/IC50” value is reported as 3.72. In addition, the IC50 in data set [2] is 31.2 µM. In data set [3], this compound gave a CC50 at 24 h of 166 µM.
Turning to `Cc1ccc(C(=O)N/N=C/c2cc(Br)cc(Br)c2O)c(O)c1`, the “Ratio CC50/IC50” value in data set [1] was 484.63. The half-inhibitory concentration (IC50) in data set [2] came to 2.02 µM; in data set [4] it was 7.12 µM. The compound also displayed a CC50 at 24 h in data set [3] of 979 µM.
In the case of `Cc1ccc(C(=O)N/N=C/c2ccccc2O)c(O)c1`, the selectivity ratio in data set [6] came out at 50. Besides, the “Ratio CC50/IC50” value in data set [1] is reported as 745.65. For the same compound, the Activity entry in the data set filed under Mus musculus [7] and in the data set listed under Mus musculus [5] was “Dose-dependent effect” in each case. For the same compound, the inhibition result in data set [8] was “Dose-dependent effect”. The values for the half-maximal inhibitory concentration (IC50) in data set [2] and in data set [4] were 1.02 µM and 2.17 µM, respectively. Besides, in data set [3], the CC50 at 24 h amounted to 761 µM.
Turning to `Cc1ccc(C(=O)N/N=C/c2cccc(Br)c2)c(O)c1`, in data set [1], the “Ratio CC50/IC50” value was found to be 4.01. Also, the 50% inhibitory concentration (IC50) in data set [2] was 28.3 µM. This compound also registered a cytotoxic concentration (CC50) at 24 h in data set [3] of 113 µM.
As for `Cc1ccc(C(=O)N/N=C/c2ccc(N(C)C)cc2)c(O)c1`, the “Ratio CC50/IC50” value in data set [1] is on record as under 7.32. In addition, the IC50 in data set [2] is over 100 µM. The same compound gave a CC50 at 24 h in data set [3] of 732 µM.
For `COc1cccc(/C=N/NC(=O)c2ccc(C)cc2O)c1`, the “Ratio CC50/IC50” value in data set [1] amounted to 32.64. Further, the half-maximal inhibitory concentration (IC50) in data set [2] amounted to 20.6 µM. In data set [3], this compound gave a CC50 at 24 h of 672 µM.
